According to patent publication US20230271964A1, “5-AMINO-8-(4-PYRIDYL)-[1,2,4]TRIAZOLO[4,3-C]PYRIMIDIN-3-ONE COMPOUNDS FOR USE AGAINST CANCER” (ASTRAZENECA AB, priority 2020, published 2023):

Columns and labels:
[1] = biological target: human adenosine A1 receptor (Homo sapiens (Human), UniProt P30542); assay: Adenosine receptor inhibition binding assay, [3H]DPCPX, A1 receptor membranes; conditions: 1 nM [3H]DPCPX, 25° C., 1 h, Ki from IC50 by Cheng-Prusoff; for Ki: read-out: A1 pKi (converted)
human adenosine A1 receptor, sequence (P30542 whole entry): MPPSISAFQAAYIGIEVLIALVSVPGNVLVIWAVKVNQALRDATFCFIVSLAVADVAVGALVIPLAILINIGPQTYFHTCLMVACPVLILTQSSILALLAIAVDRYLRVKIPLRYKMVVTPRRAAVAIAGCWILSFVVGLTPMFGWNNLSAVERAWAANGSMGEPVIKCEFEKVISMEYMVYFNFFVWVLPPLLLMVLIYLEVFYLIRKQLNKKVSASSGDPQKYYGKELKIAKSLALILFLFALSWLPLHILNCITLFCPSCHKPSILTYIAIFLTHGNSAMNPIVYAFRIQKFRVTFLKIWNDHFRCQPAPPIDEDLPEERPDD
Protocol: (§1) Inhibition binding assays were performed using 0.2 µg of membranes prepared from HEK293 cells infected with BacMam human adenosine A2A receptor or 1.4 µg of membranes prepared from HEK293 cells infected with BacMam human adenosine A1 receptor. Membranes were incubated in 50 mM Tris-HCl (HEK293-hA2A; pH 7.4) or 50 mM Tris-HCl, 100 mM NaCl, 10 mM MgCl2 (CHO-hA1; pH 7.4) in the presence of varying concentrations of test compound and 1 nM [^3H]ZM241385 (HEK293-hA2A) or [^3H]DPCPX (CHO-hA1) at 25° C. for 1 h. The assay was then terminated by rapid filtration onto GF/B grade Unifilter plates using a TomTec cell harvester, followed by 5 × 0.5 ml washes with ddH2O. Nonspecific binding was defined in the presence of 1 µM CGS 15943 (HEK293-hA2A) or 1 µM DPCPX (CHO-hA1). Bound radioactivity was determined by liquid scintillation counting and inhibition curves were analysed using a four-parameter logistic equation. IC50 values were converted to Ki values with the Cheng-Prusoff equation using a KD value derived from saturation binding studies.

[2] = biological target: human adenosine A2A receptor (Homo sapiens (Human), UniProt P29274); assay: Adenosine receptor inhibition binding assay, [3H]ZM241385, HEK293 A2A receptor membranes; conditions: 1 nM [3H]ZM241385, HEK293-hA2A membranes, 25° C., 1 h, Ki from IC50 by Cheng-Prusoff; for Ki: read-out: A2A pKi (converted)
human adenosine A2A receptor, sequence (P29274 whole entry): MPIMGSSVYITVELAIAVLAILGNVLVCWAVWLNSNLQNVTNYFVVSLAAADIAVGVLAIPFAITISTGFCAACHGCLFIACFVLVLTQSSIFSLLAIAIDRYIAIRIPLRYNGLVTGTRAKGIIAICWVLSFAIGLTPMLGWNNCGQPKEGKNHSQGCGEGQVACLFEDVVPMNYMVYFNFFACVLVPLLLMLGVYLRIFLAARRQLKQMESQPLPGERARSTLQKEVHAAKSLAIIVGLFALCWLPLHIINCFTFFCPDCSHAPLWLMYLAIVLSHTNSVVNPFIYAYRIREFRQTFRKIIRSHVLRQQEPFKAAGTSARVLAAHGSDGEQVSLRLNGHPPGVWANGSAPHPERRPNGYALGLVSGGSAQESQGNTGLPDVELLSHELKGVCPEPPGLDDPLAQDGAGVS
Protocol: as §1

| Compound | A1 pKi [1] | A2A pKi [2] | Ki [1] [nM] | Ki [2] [nM] |
| --- | --- | --- | --- | --- |
| Cc1cc(-c2c(-c3ccccc3)nc(N)n3c(=O)n(Cc4ccnn4C)nc23)cc(C)n1 [Example 1-12, 5-amino-8-(2,6-dimethyl-4-pyridyl)-2-[(2-methylpyrazol-3-yl)methyl]-7-phenyl-[1,2,4]triazolo[4,3-c]pyrimidin-3-one] | 7.1 | 9.0 |  |  |
| Cc1cc(-c2c(-c3ccccc3)nc(N)n3c(=O)n(Cc4cocn4)nc23)cc(C)n1 [Example 1-10, 5-amino-8-(2,6-dimethyl-4-pyridyl)-2-(oxazol-4-ylmethyl)-7-phenyl-[1,2,4]triazolo[4,3-c]pyrimidin-3-one] | 6.8 | 9.2 |  |  |
| Cc1cc(-c2c(-c3ccccc3)nc(N)n3c(=O)n(CCc4nccn4C)nc23)cc(C)n1 [Example 1-2, 5-amino-8-(2,6-dimethyl-4-pyridyl)-2-[2-(1-methylimidazol-2-yl)ethyl]-7-phenyl-[1,2,4]triazolo[4,3-c]pyrimidin-3-one] | 6.1 | 8.2 |  |  |
| Cc1cc(-c2c(-c3ccc(F)cc3)nc(N)n3c(=O)n(Cc4nc(C)oc4C)nc23)cc(C)n1 [Example 1-32, 5-amino-2-[(2,5-dimethyloxazol-4-yl)methyl]-8-(2,6-dimethyl-4-pyridyl)-7-(4-fluorophenyl)-[1,2,4]triazolo[4,3-c]pyrimidin-3-one] | 7.0 | 9.5 |  |  |
| Cc1cc(-c2c(-c3ccccc3)nc(N)n3c(=O)n(CCc4nnn[nH]4)nc23)cc(C)n1 [Example 1-4, 5-amino-8-(2,6-dimethyl-4-pyridyl)-7-phenyl-2-[2-(1H-tetrazol-5-yl)ethyl]-[1,2,4]triazolo[4,3-c]pyrimidin-3-one] | <5.4 | 6.4 |  |  |
| [2H]c1c([2H])c([2H])c(-c2nc(N)n3c(=O)n(Cc4ncoc4C)nc3c2-c2cc(C)nc(CO)c2)c([2H])c1[2H] [Example 1-47, 5-amino-8-[2-(hydroxymethyl)-6-methyl-4-pyridyl]-2-[(5-methyloxazol-4-yl)methyl]-7-(2,3,4,5,6-pentadeuteriophenyl)-[1,2,4]triazolo[4,3-c]pyrimidin-3-one] |  |  | 158 | 0.316 |
| [2H]c1c([2H])c([2H])c(-c2nc(N)n3c(=O)n(Cc4nccn4C)nc3c2-c2cc(Cl)nc(CO)c2)c([2H])c1[2H] [Example 1-56, 5-amino-8-[2-chloro-6-(hydroxymethyl)-4-pyridyl]-2-[(1-methylimidazol-2-yl)methyl]-7-(2,3,4,5,6-pentadeuteriophenyl)-[1,2,4]triazolo[4,3-c]pyrimidin-3-one] |  |  | 5.01 | 0.158 |
| Cc1cc(-c2c(-c3ccccc3)nc(N)n3c(=O)n(Cc4cnc[nH]4)nc23)cc(C)n1 [Example 1-23, 5-amino-8-(2,6-dimethyl-4-pyridyl)-2-(1H-imidazol-5-ylmethyl)-7-phenyl-[1,2,4]triazolo[4,3-c]pyrimidin-3-one] | 6.6 | 8.3 |  |  |
| [2H]c1c([2H])c([2H])c(-c2nc(N)n3c(=O)n(Cc4nccn4C)nc3c2-c2cc(CO)nc(OC)c2)c([2H])c1[2H] [Example 1-62, 5-amino-8-[2-(hydroxymethyl)-6-methoxy-4-pyridyl]-2-[(1-methylimidazol-2-yl)methyl]-7-(2,3,4,5,6-pentadeuteriophenyl)-[1,2,4]triazolo[4,3-c]pyrimidin-3-one] |  |  | 126 | 0.251 |
| Cc1cc(-c2c(-c3ccccc3)nc(N)n3c(=O)n(C(C)c4cccs4)nc23)cc(C)n1 (stereo not drawn) [Example 1-8, 5-amino-8-(2,6-dimethyl-4-pyridyl)-7-phenyl-2-[1-(2-thienyl)ethyl]-[1,2,4]triazolo[4,3-c]pyrimidin-3-one] | 6.7 | 7.8 |  |  |
| Cc1cc(-c2c(-c3ccccc3)nc(N)n3c(=O)n(Cc4cnn(C)n4)nc23)cc(C)n1 [Example 1-30, 5-amino-8-(2,6-dimethyl-4-pyridyl)-2-[(2-methyltriazol-4-yl)methyl]-7-phenyl-[1,2,4]triazolo[4,3-c]pyrimidin-3-one] | 6.6 | 8.9 |  |  |

Further lines, results first:

| A1 pKi [1] | A2A pKi [2] | Ki [1] [nM] | Ki [2] [nM] | Compound |
| --- | --- | --- | --- | --- |
| <6.0 | 8.9 |  |  | Cc1cc(-c2c(N3CCCCC3)nc(N)n3c(=O)n(Cc4ncoc4C)nc23)cc(C)n1 [Example 4-1, 5-amino-8-(2,6-dimethyl-4-pyridyl)-2-[(5-methyloxazol-4-yl)methyl]-7-(1-piperidyl)-[1,2,4]triazolo[4,3-c]pyrimidin-3-one] |
| 5.9 | 8.2 |  |  | Cc1cc(-c2c(-c3ccccc3)nc(N)n3c(=O)n(C[C@H]4C[C@@H](O)CN4)nc23)cc(C)n1 [Example 2-23, 5-amino-8-(2,6-dimethyl-4-pyridyl)-2-[[(2R,4R)-4-hydroxypyrrolidin-2-yl]methyl]-7-phenyl-[1,2,4]triazolo[4,3-c]pyrimidin-3-one] |
| 6.6 | 7.9 |  |  | Cc1cc(-c2c(-c3ccccc3)nc(N)n3c(=O)n(CC4CCCN4C(=O)OC(C)(C)C)nc23)cc(C)n1 (stereo not drawn) [Example 2-4, tert-butyl 2-[[5-amino-8-(2,6-dimethyl-4-pyridyl)-3-oxo-7-phenyl-[1,2,4]triazolo[4,3-c]pyrimidin-2-yl]methyl]pyrrolidine-1-carboxylate] |
| 6.7 | 9.6 |  |  | COc1cc(-c2c(-c3ccccc3)nc(N)n3c(=O)n(C[C@H]4CCCO4)nc23)cc(C)n1 [Example 2-27, 5-amino-8-(2-methoxy-6-methyl-4-pyridyl)-7-phenyl-2-[[(2R)-tetrahydrofuran-2-yl]methyl]-[1,2,4]triazolo[4,3-c]pyrimidin-3one] |
|  | 8.8 |  |  | Cc1cc(-c2c(-c3ccccc3)nc(N)n3c(=O)n(C[C@H]4C[C@@H](O)CN4C)nc23)cc(C)n1 [Example 2-24, 5-amino-8-(2,6-dimethyl-4-pyridyl)-2-[[(2R,4R)-4-hydroxy-1-methyl-pyrrolidin-2-yl]methyl]-7-phenyl-[1,2,4]triazolo[4,3-c]pyrimidin-3-one] |
| 7.4 | 9.3 |  |  | Cc1cc(-c2c(-c3ccccc3)nc(N)n3c(=O)n(C[C@H]4CCCN4C)nc23)cc(C)n1 [Example 2-7, 5-amino-8-(2,6-dimethyl-4-pyridyl)-2-[[(2R)-1-methylpyrrolidin-2-yl]methyl]-7-phenyl-[1,2,4]triazolo[4,3-c]pyrimidin-3-one] |
| 5.5 | 9.0 |  |  | COc1cc(-c2c(-c3ccc(F)cc3)nc(N)n3c(=O)n(C[C@H]4CCCO4)nc23)cc(CO)n1 [Example 2-37, 5-amino-7-(4-fluorophenyl)-8-[2-(hydroxymethyl)-6-methoxy-4-pyridyl]-2-[[(2R)-tetrahydrofuran-2-yl]methyl]-[1,2,4]triazolo[4,3-c]pyrimidin-3-one] |
| 5.6 | 6.9 |  |  | Cc1cc(-c2c(-c3ccccc3)nc(N)n3c(=O)n(CCNC4CCN(C(=O)c5cccnc5)C4)nc23)cc(C)n1 (stereo not drawn) [Example 3-2, 5-amino-8-(2,6-dimethyl-4-pyridyl)-7-phenyl-2-[2-[[1-(pyridine-3-carbonyl)pyrrolidin-3-yl]amino]ethyl]-[1,2,4]triazolo[4,3-c]pyrimidin-3-one] |
| 6.4 | 8.4 |  |  | Cc1cc(-c2c(-c3ccccc3)nc(N)n3c(=O)n(C[C@@H]4C[C@@H](F)CN4)nc23)cc(C)n1 [Example 2-21, 5-amino-8-(2,6-dimethyl-4-pyridyl)-2-[[(2S,4R)-4-fluoropyrrolidin-2-yl]methyl]-7-phenyl-[1,2,4]triazolo[4,3-c]pyrimidin-3-one] |
|  | 8.6 |  |  | Cc1cc(-c2c(-c3ccccc3)nc(N)n3c(=O)n(C[C@@H]4CCCO4)nc23)cc(C)n1 [Example 2-17, 5-amino-8-(2,6-dimethyl-4-pyridyl)-7-phenyl-2-[[(2S)-tetrahydrofuran-2-yl]methyl]-[1,2,4]triazolo[4,3-c]pyrimidin-3-one] |
| 6.2 | 8.0 |  |  | Cc1cc(-c2c(-c3ccccc3)nc(N)n3c(=O)n(C[C@H]4C[C@@H](F)CN4)nc23)cc(C)n1 [Example 2-19, 5-amino-8-(2,6-dimethyl-4-pyridyl)-2-[[(2R,4R)-4-fluoropyrrolidin-2-yl]methyl]-7-phenyl-[1,2,4]triazolo[4,3-c]pyrimidin-3-one] |
| 6.2 | 9.1 |  |  | Cc1cc(-c2c(-c3ccccc3)nc(N)n3c(=O)n(CC4CCCN4C)nc23)cc(C)n1 (stereo not drawn) [Example 2-6, 5-amino-8-(2,6-dimethyl-4-pyridyl)-2-[(1-methylpyrrolidin-2-yl)methyl]-7-phenyl-[1,2,4]triazolo[4,3-c]pyrimidin-3-one] |
|  | 8.8 |  |  | Cc1cc(-c2c(-c3ccccc3)nc(N)n3c(=O)n(C[C@@H]4C[C@H](O)CN4C)nc23)cc(C)n1 [Example 2-25, 5-amino-8-(2,6-dimethyl-4-pyridyl)-2-[[(2S,4S)-4-hydroxy-1-methyl-pyrrolidin-2-yl]methyl]-7-phenyl-[1,2,4]triazolo[4,3-c]pyrimidin-3-one] |
